Laboratory results as given in ChEMBL document CHEMBL5316334, “Structure-Based Design of Novel Alkynyl Thio-Benzoxazepinone Receptor-Interacting Protein Kinase-1 Inhibitors: Extending the Chemical Space from the Allosteric to ATP Binding Pockets” (J Med Chem, 2023).
Activity calls are given as the source filed them. The calls are words filed in the database; no cut-off is given here.

How the values were obtained:
U-937 = assay: Anti-necroptic activity against human U-937 cells assessed as inhibition of TSZ-induced necroptosis at 100 nM pretreated with compound followed by TSZ induction and measured for 12 hrs by Cell-titer-glo assay; format: functional, cell-based
Mus musculus [1] = assay: Anti-necroptic activity against mTNFalpha induced C57BL/6 mouse systemic inflammatory response syndrome model assessed as increase in survival rate 15 mg/kg, IG pretreated with compound for 1 hr followed by mTNFalpha injection and measured after 15 mins; format: functional; settings: time 75 min, 1.25 h
[2] = target: T1, Mixed lineage kinase domain-like protein (Homo sapiens) (UniProt Q8NB16); assay: Inhibition of MLKL phosphorylation […] (TNFalpha, Smac mimetic and z-VAD-FMK) induced-human HT-29 cells assessed as decrease in phosphorylated MLKL level at 12 nM pretreated with compound followed by TSZ-induction and measured after 6 hrs by immunoblotting analysis; format: cell-based
T1 sequence (whole entry): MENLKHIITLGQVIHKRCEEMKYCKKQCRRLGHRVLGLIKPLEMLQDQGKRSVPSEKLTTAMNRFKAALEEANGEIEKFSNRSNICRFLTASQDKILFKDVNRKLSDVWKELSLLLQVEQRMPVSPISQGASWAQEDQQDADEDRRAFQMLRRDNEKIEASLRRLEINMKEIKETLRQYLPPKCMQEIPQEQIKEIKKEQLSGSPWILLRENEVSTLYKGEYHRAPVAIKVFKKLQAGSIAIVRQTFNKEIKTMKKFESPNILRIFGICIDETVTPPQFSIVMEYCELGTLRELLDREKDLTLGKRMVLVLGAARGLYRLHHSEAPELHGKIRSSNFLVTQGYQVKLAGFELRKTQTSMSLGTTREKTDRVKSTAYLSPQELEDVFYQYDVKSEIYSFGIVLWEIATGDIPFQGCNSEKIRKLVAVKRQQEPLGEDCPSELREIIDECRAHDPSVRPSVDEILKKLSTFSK

HT-29 [3] = assay: Cytotoxicity against human HT-29 cells assessed as reduction in cell viability measured for 16 to 24 hrs by Cell-titer-glo assay; format: functional; settings: time 16-24 hrs
[4] = target: Receptor-interacting serine/threonine-protein kinase 3 (Homo sapiens) (UniProt Q9Y572); assay: Inhibition of RIPK3 phosphorylation in TSZ (TNFalpha, Smac mimetic and z-VAD-FMK) induced -human HT-29 cells assessed as decrease in phosphorylated RIPK3 level at 12 nM pretreated with compound followed by TSZ-induction by immunoblotting analysis; format: cell-based; settings: time 2-6 hrs, TDE = time-dependent effect
Sequence of Receptor-interacting serine/threonine-protein kinase 3 (Homo sapiens) (Q9Y572 whole entry, looked up): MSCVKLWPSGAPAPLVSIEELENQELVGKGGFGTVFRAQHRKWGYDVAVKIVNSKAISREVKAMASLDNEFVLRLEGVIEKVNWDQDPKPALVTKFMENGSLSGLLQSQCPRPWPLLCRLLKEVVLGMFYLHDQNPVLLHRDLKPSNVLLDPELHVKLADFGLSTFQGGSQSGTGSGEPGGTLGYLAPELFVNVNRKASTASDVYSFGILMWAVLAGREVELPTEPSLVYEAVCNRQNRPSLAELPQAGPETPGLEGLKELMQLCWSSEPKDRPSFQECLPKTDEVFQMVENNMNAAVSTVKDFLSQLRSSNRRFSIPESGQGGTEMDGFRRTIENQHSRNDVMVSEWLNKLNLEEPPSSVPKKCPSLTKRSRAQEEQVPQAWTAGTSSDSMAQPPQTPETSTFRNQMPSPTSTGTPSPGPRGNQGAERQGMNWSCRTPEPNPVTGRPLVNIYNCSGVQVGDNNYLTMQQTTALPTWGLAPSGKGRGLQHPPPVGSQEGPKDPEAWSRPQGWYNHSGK

[5] = target: T2, Receptor-interacting serine/threonine-protein kinase 1 (Homo sapiens) (UniProt Q13546); assay: Inhibition of RIPK1 phosphorylation in TSZ (TNFalpha, Smac mimetic and z-VAD-FMK) induced-human HT-29 cells assessed as decrease in phosphorylated RIPK1 level at 12 nM pretreated with compound followed by TSZ-induction by immunoblotting analysis; format: cell-based; settings: time 6.0 hrs, TDE = time-dependent effect
T2 sequence (whole entry): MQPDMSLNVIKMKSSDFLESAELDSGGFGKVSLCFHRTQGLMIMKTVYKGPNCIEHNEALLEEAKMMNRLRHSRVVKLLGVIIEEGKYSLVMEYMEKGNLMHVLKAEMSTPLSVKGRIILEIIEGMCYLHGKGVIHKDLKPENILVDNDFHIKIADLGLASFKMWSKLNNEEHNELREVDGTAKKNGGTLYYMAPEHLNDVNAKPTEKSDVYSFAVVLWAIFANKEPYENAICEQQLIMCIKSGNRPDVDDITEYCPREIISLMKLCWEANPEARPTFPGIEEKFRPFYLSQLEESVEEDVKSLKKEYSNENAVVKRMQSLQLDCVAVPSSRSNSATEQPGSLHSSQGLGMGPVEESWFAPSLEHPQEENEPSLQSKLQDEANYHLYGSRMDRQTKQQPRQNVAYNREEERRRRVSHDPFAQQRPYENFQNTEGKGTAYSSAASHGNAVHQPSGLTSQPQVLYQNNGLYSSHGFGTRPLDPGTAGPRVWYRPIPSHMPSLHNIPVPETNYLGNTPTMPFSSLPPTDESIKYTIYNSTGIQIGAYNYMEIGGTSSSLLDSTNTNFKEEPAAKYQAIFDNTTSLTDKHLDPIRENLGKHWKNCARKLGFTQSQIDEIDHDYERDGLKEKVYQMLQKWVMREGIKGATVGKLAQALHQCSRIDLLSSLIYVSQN

HT-29 [6] = assay: Anti-necroptic activity in human HT-29 cells assessed as inhibition of TNFalpha and cycloheximide-induced necroptosis pretreated with compound followed by TNFalpha and cycloheximide-induction and measured after 24 hrs by Cell-titer-glo assay; format: functional, cell-based
[7] = target: T1, Mixed lineage kinase domain-like protein (Homo sapiens); assay: Inhibition of MLKL phosphorylation in TSZ (TNFalpha, Smac mimetic and z-VAD-FMK) induced-human HT-29 cells assessed as decrease in phosphorylated MLKL level pretreated with compound followed by TSZ-induction and measured after 6 hrs by immunoblotting analysis; format: cell-based; settings: dose 1.5-12 nM
Mus musculus [8] = assay: Anti-necroptic activity against TNFalpha-induced C57BL/6 mouse systemic inflammatory response syndrome model assessed as protection of body temperature at 20 mg/kg, IG pretreated with compound followed by TNFalpha-stimulation and measured after 2 to 3 hrs by thermometer analysis; format: functional, organism-based; settings: time 2-3 hrs
[9] = target: Receptor-interacting serine/threonine-protein kinase 3 (Homo sapiens) (UniProt Q9Y572); assay: Inhibition of RIPK3 phosphorylation in TSZ (TNFalpha, Smac mimetic and z-VAD-FMK) induced-human HT-29 cells assessed as decrease in phosphorylated RIPK3 level pretreated with compound followed by TSZ-induction and measured after 6 hrs by immunoblotting analysis; format: cell-based; settings: dose 1.5-12 nM
[10] = target: T3, Receptor-interacting serine/threonine-protein kinase 1 (Homo sapiens, UniProt Q13546); assay: Binding affinity to recombinant RIPK1 (unknown origin) assessed as dissociation constant by kinomescan assay
T3 sequence (Q13546 whole entry): T2 sequence (whole entry)

[11] = target: T1, Mixed lineage kinase domain-like protein (Homo sapiens); assay: Inhibition of MLKL phosphorylation in TSZ (TNFalpha, Smac mimetic and z-VAD-FMK) induced-human HT-29 cells assessed as decrease in phosphorylated MLKL level at 12 nM pretreated with compound followed by TSZ-induction by immunoblotting analysis; format: cell-based; settings: time 2-6 hrs, TDE = time-dependent effect
Mus musculus [12] = assay: Anti-necroptic activity against mTNFalpha induced C57BL/6 mouse systemic inflammatory response syndrome model assessed as increase in survival rate 10 mg/kg, IG pretreated with compound for 1 hr followed by mTNFalpha injection and measured after 15 mins; format: functional; settings: time 75 min, 1.25 h
Mus musculus [13] = assay: Anti-necroptic activity against mTNFalpha induced C57BL/6 mouse systemic inflammatory response syndrome model assessed as increase in survival rate 5 mg/kg, IG pretreated with compound for 1 hr followed by mTNFalpha injection and measured after 15 mins; format: functional; settings: time 75 min, 1.25 h
L929 = assay: Anti-necroptic activity against mouse L929 cells assessed as inhibition of TNFalpha/z-VAD-FMK-induced necroptosis pretreated with compound followed by TNFalpha/z-VAD-FMK-induction and measured after 24 hrs by Cell-titer-glo assay; format: functional, cell-based; settings: dose 0.02-10 µM
[14] = target: T2, Receptor-interacting serine/threonine-protein kinase 1 (Homo sapiens); assay: Inhibition of RIPK1 phosphorylation in TSZ (TNFalpha, Smac mimetic and z-VAD-FMK) induced-human HT-29 cells assessed as decrease in phosphorylated RIPK1 level at 12 nM pretreated with compound followed by TSZ-induction and measured after 6 hrs by immunoblotting analysis; format: cell-based
Mus musculus [15] = assay: Anti-necroptic activity against TNFalpha-induced C57BL/6 mouse serum assessed as reduction in IL-1beta level at 5 mg/kg, IG pretreated with compound followed by TNFalpha-stimulation for 4 hrs; format: functional, organism-based
HT-29 [16] = assay: Inhibition of RIPK1-RIPK3-MLKL pathway in TSZ induced human HT-29 cells assessed as reduction in necrosome formation at 12 nM measured after 6 hrs by Western blot analysis; format: cell-based
Mus musculus [17] = assay: Anti-necroptic activity against TNFalpha-induced C57BL/6 mouse serum assessed as reduction in IL-6 level at 5 mg/kg, IG pretreated with compound followed by TNFalpha-stimulation for 4 hrs; format: functional, organism-based
[18] = target: Receptor-interacting serine/threonine-protein kinase 3 (Homo sapiens) (UniProt Q9Y572); assay: Inhibition of RIPK3 phosphorylation […] (TNFalpha, Smac mimetic and z-VAD-FMK) induced-human HT-29 cells assessed as decrease in phosphorylated RIPK3 level at 12 nM pretreated with compound followed by TSZ-induction and measured after 6 hrs by immunoblotting analysis; format: cell-based
[19] = target: T2, Receptor-interacting serine/threonine-protein kinase 1 (Homo sapiens); assay: Inhibition of RIPK1 phosphorylation in TSZ (TNFalpha, Smac mimetic and z-VAD-FMK) induced-human HT-29 cells assessed as decrease in phosphorylated RIPK1 level pretreated with compound followed by TSZ-induction and measured after 6 hrs by immunoblotting analysis; format: cell-based; settings: dose 1.5-12 nM
HT-29 [20] = assay: Cytotoxicity against human HT-29 cells assessed as reduction in cell viability at 100 uM measured for 16 to 24 hrs by Cell-titer-glo assay; format: functional, cell-based; settings: time 16-24 hrs
HT-29 [21] = assay: Anti-necroptosis activity against human HT-29 cells assessed as inhibition of TSZ-induced necroptosis preincubated for 30 mins followed by compound addition and measured for 16 hrs by Cell-titer-glo assay; format: functional, cell-based
Mus musculus [22] = assay: Anti-necroptosis activity against TNFalpha-induced C57BL/6 mouse systemic inflammatory response syndrome model assessed as protection of body temperature at 5 to 20 mg/kg, IG pretreated with compound followed by TNFalpha-stimulation and measured after 2 to 3 hrs by thermometer analysis; format: functional, organism-based; settings: dose 5-20 mg/kg, time 2-3 hrs
Mus musculus [23] = assay: Anti-necroptic activity against mTNFalpha induced C57BL/6 mouse systemic inflammatory response syndrome model assessed as increase in survival rate 5 mg/kg, IG pretreated with compound for 1 hr followed by mTNFalpha injection and measured after 60 mins; format: functional; settings: time 2 hrs
Mus musculus [24] = assay: Anti-necroptic activity against mTNFalpha induced C57BL/6 mouse systemic inflammatory response syndrome model assessed as increase in survival rate 20 mg/kg, IG pretreated with compound for 1 hr followed by mTNFalpha injection and measured after 60 mins; format: functional; settings: time 2 hrs
Mus musculus [25] = assay: Anti-necroptic activity against mTNFalpha induced C57BL/6 mouse systemic inflammatory response syndrome model assessed as increase in survival rate 20 mg/kg, IG pretreated with compound for 1 hr followed by mTNFalpha injection and measured after 15 mins; format: functional; settings: time 75 min, 1.25 h
Mus musculus [26] = assay: Anti-necroptic activity against TNFalpha-induced C57BL/6 mouse serum assessed as reduction in IL-1beta level at 20 mg/kg, IG pretreated with compound followed by TNFalpha-stimulation for 4 hrs; format: functional, organism-based
HT-29 [27] = assay: Anti-necroptosis activity against human HT-29 cells assessed as inhibition of TSZ-induced necroptosis pretreated with compound followed by TSZ induction and measured for 12 hrs by Cell-titer-glo assay; format: functional, cell-based; settings: dose 0.63-100 nM
Mus musculus [28] = assay: Anti-necroptic activity against TNFalpha-induced C57BL/6 mouse serum assessed as reduction in IL-6 level at 20 mg/kg, IG pretreated with compound followed by TNFalpha-stimulation for 4 hrs; format: functional, organism-based

Row | SMILES | Activity (U-937) | inhibition [2] | CC50 (HT-29 [3]) | inhibition [4] | inhibition [5] | Activity (HT-29 [6]) | inhibition [7] | Activity (Mus musculus [8]) | inhibition [9] | Kd [10] | inhibition [11] | Activity (Mus musculus [12]) | Activity (Mus musculus [13]) | Activity (L929) | inhibition [14] | inhibition (HT-29 [16]) | inhibition [18] | inhibition [19] | EC50 (HT-29 [21]) | Activity (Mus musculus [22]) | also measured
1 | CN1C(=S)[C@@H](NC(=O)c2n[nH]c(Cc3ccccc3)n2)COc2ccc(C#Cc3cccc(C#N)c3)cc21 | Active | Active | > 100000 nM | Tde | Tde | inactive | Dose-Dependent Effect | Active | Dose-Dependent Effect | 70 nM | Tde | 83% | 58% | Dose-Dependent Effect | Active | Active | Active | Dose-Dependent Effect | 3.2 nM | – | Activity (Mus musculus [1]): 100%; Activity (Mus musculus [15]): Active; Activity (Mus musculus [17]): Active; Activity (HT-29 [20]): inactive
2 | CN1C(=O)[C@@H](NC(=O)c2n[nH]c(Cc3ccccc3)n2)COc2ccccc21 [GSK2982772] | – | – | > 100000 nM | – | – | – | – | – | – | – | – | – | – | – | – | – | – | – | – | Active | Activity (Mus musculus [23]): 50%; Activity (Mus musculus [24]): 92%
3 | C#Cc1ccc2c(c1)N(C)C(=S)[C@@H](NC(=O)c1n[nH]c(Cc3ccccc3)n1)CO2 | Active | Active | > 100000 nM | Tde | Tde | inactive | Dose-Dependent Effect | Active | Dose-Dependent Effect | 9.7 nM | Tde | 83% | 66% | Dose-Dependent Effect | Active | Active | Active | Dose-Dependent Effect | 3.7 nM | Active | Activity (Mus musculus [25]): 100%; Activity (Mus musculus [26]): Active; Activity (HT-29 [27]): Dose-Dependent Effect; Activity (Mus musculus [28]): Active
